Reference: paper PMC10388362, “Fluorescent Ligands Enable Target Engagement Studies for the Intracellular Allosteric Binding Site of the Chemokine Receptor CXCR2” (Journal of Medicinal Chemistry, 2023)

Legend:
CXCR2 [1] = target: T1, CXCR2 (Homo sapiens, UniProt P25025); assay: Live cell NanoBRET competition binding with 9a; settings: competition with 9a (50 nM), live HEK293T cells expressing CXCR2_Nluc
T1 construct: Promega pNLF1-C (Nluc) #CXCR20TN00; host or cells: HEK293T, transient transfection (PEI)
T1 sequence (P25025 1-360): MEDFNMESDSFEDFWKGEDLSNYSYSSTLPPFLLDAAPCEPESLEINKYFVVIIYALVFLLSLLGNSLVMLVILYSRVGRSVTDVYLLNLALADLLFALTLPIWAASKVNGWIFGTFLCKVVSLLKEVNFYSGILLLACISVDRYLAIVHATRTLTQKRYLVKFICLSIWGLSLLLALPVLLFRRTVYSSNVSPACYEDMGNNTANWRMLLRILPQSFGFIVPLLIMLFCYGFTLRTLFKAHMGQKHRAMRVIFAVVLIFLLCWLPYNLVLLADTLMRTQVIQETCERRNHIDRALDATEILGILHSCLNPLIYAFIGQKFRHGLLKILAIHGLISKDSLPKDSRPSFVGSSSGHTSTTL
Description: HEK293T cells were transfected with the plasmid (5.5 μg) for CXCR2_Nluc using polyethylenimine (PEI) as transfection reagent (PEI/DNA ratio 3:1). After 24 h at 37 °C and 5% CO2, the cells were detached with DMEM and transferred to a white F-bottom 384-well plate (10,000 cells/well), which was coated with 5 μL/well poly-D-lysine (0.1 mg/mL, dissolved in water), and incubated for further 24 h at 37 °C and 5% CO2. Subsequently, the cells were washed with phosphate-buffered saline (Gibco DPBS, with CaCl2 and MgCl2). The assay medium (Gibco DMEM/F12, 15 mM HEPES, no phenol red supplemented with 5% FBS) was added and the cells were incubated at 37 °C for 30 min. […] To determine nonspecific binding, 5 μL of a solution of 3 dissolved in the assay medium (final assay concentration: 10 μM) were added.
Total, nonspecific and specific binding, which was calculated as a difference of total and nonspecific binding, were analyzed using the algorithms for one-site saturation binding in PRISM9.5 (GraphPad). To determine the inhibition constants (Ki) of the potential competitors, data were normalized to total and nonspecific binding and analyzed using the one-site-fit Ki equation in PRISM9.5 (GraphPad).

CXCR2 [2] = target: T1, CXCR2; assay: Membrane-based NanoBRET competition kinetic assay with 9a; settings: kinetic competitive binding with 9a (50 nM), CXCR2_Nluc membranes; read-out: residence time tr
Description: 2.5 μL of a solution of the fluorescent ligand (9a) diluted in the assay buffer (final assay concentration: 50 nM) and 2.5 μL of a solution of the competing nonlabeled ligands (final assay concentrations: […]) or 3 for determining nonspecific binding (final assay concentration: 25 μM) in the assay buffer were transferred to a 384-well plate. […] Thereafter, 20 μL of the membrane preparation (2 μg total protein/well) was added and BRET ratios were measured with a CLARIOstar microplate reader using 620/10 and 475/30 nm emission filters over time. Specific BRET ratios were calculated as a difference of total and nonspecific binding. The obtained data were analyzed using the kinetics of the competitive binding algorithm in PRISM9.5 (GraphPad) to determine competition binding kinetics.

CXCR2 [3] = target: T1, CXCR2; assay: Fluorescence microscopy, displacement of 9a in HEK293 cells stably expressing CXCR2; format: cell-based; settings: 9a 500 nM
Description: For live cell microscopy, HEK293 cells stably expressing CXCR2 were seeded onto poly-D-lysine (PDL)-coated 8-well μ-slides (Ibidi) at a density of 1.5 × 10^5 cells per well and cultured overnight at 37 °C and 5% CO2. […] Afterward, the fluorescent CXCR2 ligand ((9a) final concentration 500 nM) was added for 60 min at 37 °C, and the cells were washed once with PBS before imaging. For immunostaining, the cells were first fixed with 4% paraformaldehyde solution, washed with PBS, and then blocked for 1 h with 10% goat serum and 1% fatty acid-free bovine serum albumin (BSA) in PBS at 37 °C. As primary antibody, anti-CXCR2 mouse IgG (R&D Systems, catalog # 48311, 1:100 in blocking solution) was added, and the cells were incubated for 1 h at 37 °C. After three washes with PBS, goat anti-mouse IgG (H+L) conjugated to FITC (Sigma-Aldrich, catalog # AP124F, 1:500 in blocking solution) was added for 1 h at 37 °C. The cells were again washed three times with PBS and counterstained with 4′,6-diamidin-2-phenylindole (DAPI) solution (0.1 μg/mL) for 15 min in the dark at room temperature, followed by three washes with PBS. […] Afterward, the fluorescent CXCR2 ligand ((9a) final concentration 500 nM) was added for 30 min at 37 °C and the cells were imaged. Microscopy was carried out on an AxioObserver.Z1 microscope (Carl Zeiss, Jena, Germany) equipped with an ApoTome imaging system and a Heating unit XL S using a Plan-Apochromat ×63/1.40 Oil objective (filter set 43 (red), 38 (green), 49 (blue)). Image processing and line scan analysis were performed with Zen blue Imaging software. The fluorescence intensity values were normalized to vehicle control.

CXCR2 [4] = target: T1, CXCR2; assay: Membrane-based NanoBRET competition assay with 9a; format: binding; settings: competition with 9a (50 nM), CXCR2_Nluc membranes
Description: Then, 20 μL of the membrane preparation (diluted in assay buffer, 2 μg total protein/well) was added and the plates were incubated for 90 min at 37 °C. Subsequently, 5 μL of a furimazine solution (final assay dilution: 1:5000 in the assay buffer) was added to each well (final assay volume: 35 μL). […] To determine the inhibition constants (Ki) of the nonlabeled ligands, data were analyzed using the one-site-fit Ki equation in PRISM9.5 (GraphPad).

`Cc1ccc([C@H](Nc2c(Nc3cccc(C(=O)N(C)C)c3O)c(=O)c2=O)C(C)(C)C)o1` [compound 3] showed a Ki (CXCR2 [1]; read-out: Ki) of 11 pM, a Ki (CXCR2 [1]; read-out: pKi (converted)) of 9.33 pM and a residence time (CXCR2 [2]) of 474 ± 59 min. For the same compound, the “effect of preincubation on membrane-associated 9a fluorescence” value (CXCR2 [3]; fixed HEK293 cells stably expressing CXCR2, competitor 10 μM) was “virtually blunted all membrane-associated probe fluorescence”, the “effect of preincubation on membrane-based 9a fluorescence” value (CXCR2 [3]; live cell imaging, HEK293 cells stably expressing CXCR2, competitor 10 μM) was “very strong reduction in membrane-based fluorescence” and the Ki (CXCR2 [4]; read-out: Ki) was 90 pM. It also gave a Ki (CXCR2 [4]; read-out: pKi (converted)) of 79.4 pM.
